The record followed here is publication PMC9250534, “Synthesis and direct assay of large macrocycle diversities by combinatorial late-stage modification at picomole scale” (Nature Communications, 2022).

SMILES strings stand for the structures. Numbered stars: 1 amine (or outer) side, 2 acyl side, 3 side chain; on linkers, the order of the positions; unused ones are H or OH. Bridge positions count the residues as written; N and C are the ends. Square brackets hold non-standard residues; d marks the D form. Peptide text beside a SMILES is read from it. * marks the point of attachment. Isoxazole3carbonyl(5-Me) = Cc1cc(C(=O)*)no1; 1,2,3Thiadiazole5CO(4-Me) = Cc1nnsc1C(=O)*; Benzoyl(3-CF3) = O=C(c1cccc(C(F)(F)F)c1)*; Isoorotoyl = O=C(c1c[nH]c(=O)[nH]c1=O)*; Benzoyl(4-Cl) = O=C(c1ccc(Cl)cc1)*; X14 = O=C(C1(c2ccccc2)CCCCC1)*; Cysteamide = C(CS[*:3])N[*:1]; X3 = O=C(Cc1c[nH]c2ccccc12)*; Isovaleryl = CC(C)CC(=O)*; X7 = CC(C)=CCCC(C)CC(=O)*; X1 = O=C(/C=C/c1ccccc1)*; 2Furoyl = O=C(c1ccco1)*; Api = NC1(C(=O)O)CCNCC1; Dap = NC[CH](N)C(=O)O; Bz = O=C(c1ccccc1)*; Mpa = O=C(O)CCS

The test addresses MDM2 (Homo sapiens, UniProt Q00987). As to the kind of experiment: MDM2 binding screen: displacement of fluorescent p53 peptide probe FP53 (fluorescence polarization). Particulars: for fraction fluorescent probe displaced, Screen: initial screen; for fraction fluorescent probe displaced, Screen / fraction fluorescent probe displaced, Replicate: crude macrocycle reactions. In a few lines: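 Single-point screen: one fluorescence anisotropy reading at 25 °C (485 nm excitation, 535 nm emission) per macrocycle. Crude macrocycle reactions, final 10 µM, were scored for displacing the fluorescent p53 peptide from human MDM2.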
On the technique in general: Polarisation of emitted light reports the rotation of a fluorescent probe.

[1] abbreviates: 10 µM macrocycle concentration, crude acylated macrocycle (scaffold Mpa-AA1-AA2-AA3 x carboxylic acid), p53-based fluorescent peptide, human MDM2.

MDM2, sequence (Q00987 whole entry): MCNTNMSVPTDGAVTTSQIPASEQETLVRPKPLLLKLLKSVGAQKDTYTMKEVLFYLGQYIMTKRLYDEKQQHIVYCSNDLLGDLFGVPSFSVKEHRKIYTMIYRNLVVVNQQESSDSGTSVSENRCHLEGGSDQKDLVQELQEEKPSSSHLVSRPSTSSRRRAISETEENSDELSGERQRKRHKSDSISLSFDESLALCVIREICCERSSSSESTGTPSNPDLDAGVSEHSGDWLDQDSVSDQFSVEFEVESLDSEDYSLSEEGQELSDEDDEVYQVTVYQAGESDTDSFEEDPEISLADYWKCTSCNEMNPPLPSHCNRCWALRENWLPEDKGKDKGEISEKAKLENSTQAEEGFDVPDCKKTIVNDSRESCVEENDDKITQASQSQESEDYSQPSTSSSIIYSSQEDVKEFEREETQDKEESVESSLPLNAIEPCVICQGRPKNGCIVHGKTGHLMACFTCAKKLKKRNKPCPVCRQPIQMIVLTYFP

Regarding `O=C1CCSSCCNC(=O)[C@H](Cc2c[nH]c3ccccc23)NC(=O)[C@@H]2CCCN2C(=O)[C@H](CNC(=O)c2ccc(Cl)cc2)N1` [X D3 B1 W Acid 25] ([Mpa][Dap](Benzoyl(4-Cl))PW-Cysteamide; disulfide 1-C), for the setting “Acid 25”, the “fraction fluorescent probe displaced, Screen” value was found to be 0.28. Also, for the setting “Acid 25, replicate”, the “fraction fluorescent probe displaced, Replicate” value is recorded as 0.15.
The corresponding values for `O=C1CCSSCCNC(=O)C2CCCN(C2)C(=O)C2CN(C(=O)c3ccc(Cl)cc3)CCN2C(=O)C(Cc2c[nH]c3ccccc23)N1` (centres unmarked) [X W D7 B4 Acid 25] are 0.15 and 0.07.
Take `O=C1CCSSCCNC(=O)C2(CCN(C(=O)c3ccc(Cl)s3)CC2)NC(=O)c2cccc(c2)CNC(=O)[C@H](Cc2c[nH]c3ccccc23)N1` [X W B5 D6 Acid 14]: the “fraction fluorescent probe displaced, Screen” value (Acid 14) was 0.14. Further, for the setting “Acid 14, replicate”, the “fraction fluorescent probe displaced, Replicate” value is 0.17.
In the case of `O=C1CCSSCCNC(=O)[C@H](Cc2c[nH]c3ccccc23)NC(=O)[C@@H]2CCCN2C(=O)C2(CCN(C(=O)/C=C/c3ccccc3)CC2)N1` [X D6 B1 W Acid 91] ([Mpa][Api](X1)PW-Cysteamide; disulfide 1-C), the “fraction fluorescent probe displaced, Screen” value (Acid 91) is -0.05. For the same molecule, the “fraction fluorescent probe displaced, Replicate” value (Acid 91, replicate) is listed as 0.04.
Take `O=C(NC[C@@H]1NC(=O)[C@@H]2CCCN2C(=O)CCSSCCNC(=O)[C@H](Cc2c[nH]c3ccccc23)NC1=O)c1ccco1` [X-B1-D3-W + A16] ([Mpa]P[Dap](2Furoyl)W-Cysteamide; disulfide 1-C): under setting [1], the “fraction fluorescent probe displaced” value was 0.06294.
Take `O=C1NCCSSCCC(=O)N2CCC[C@H]2C(=O)N[C@@H](CNC(=O)C2(c3ccccc3)CCCCC2)C(=O)N[C@H]1Cc1ccccc1` [X-B1-D3-F + A98] ([Mpa]P[Dap](X14)F-Cysteamide; disulfide 1-C): the “fraction fluorescent probe displaced” value under setting [1] is 0.6432.
The same measure, in the same setting: under `O=C(NC[C@@H]1NC(=O)[C@@H]2CCCN2C(=O)CCSSCCNC(=O)[C@H](Cc2ccccc2)NC1=O)c1c[nH]c(=O)[nH]c1=O` [X-B1-D3-F + A11] ([Mpa]P[Dap](Isoorotoyl)F-Cysteamide; disulfide 1-C) stands 0.04782.
For the molecule `O=C1CCNC(=O)C2CC(NC(=O)c3ccc(Cl)cc3)CN2C(=O)CCSSCCNC(=O)C(Cc2c[nH]c3ccccc23)N1` (centres unmarked) [X D5 B2 W Acid 25], under “Acid 25”, the “fraction fluorescent probe displaced, Screen” value is on record as 0.15. Also, the “fraction fluorescent probe displaced, Replicate” value (Acid 25, replicate) was found to be 0.07.
On to `O=C(Cc1c[nH]c2ccccc12)NC[C@@H]1NC(=O)[C@@H]2CCCN2C(=O)CCSSCCNC(=O)[C@H](Cc2c[nH]c3ccccc23)NC1=O` [X-B1-D3-W + A12] ([Mpa]P[Dap](X3)W-Cysteamide; disulfide 1-C), for which the “fraction fluorescent probe displaced” value under setting [1] is 0.1189.
As to `O=C(NCC1NC(=O)C2CCCN2C(=O)CCSSCCNC(=O)C(Cc2c[nH]c3ccccc23)NC1=O)c1ccc(Cl)cc1` (centres unmarked) [X B1 D3 W Acid 25] ([Mpa]P[Dap](Benzoyl(4-Cl))W-Cysteamide; disulfide 1-C; configuration not given here), the “fraction fluorescent probe displaced, Screen” value (Acid 25) came to 0.22. For the setting “Acid 25, replicate”, the “fraction fluorescent probe displaced, Replicate” value is 0.20.
The corresponding values for `O=C1CCNC(=O)C2CN(C(=O)c3ccc(Cl)cc3)CCN2C(=O)C(Cc2ccccc2)NC(=O)CCSSCCN1` (centres unmarked) [X F D7 B2 Acid 25] are -0.07 and 0.10.
Taken in the same sequence, the figures for `O=C1NC(Cc2c[nH]c3ccccc23)C(=O)N2CCN(C(=O)c3ccc(Cl)cc3)CC2C(=O)NCCSSCCC(=O)N2CCCC1C2` (centres unmarked) [X B4 W D7 Acid 25] were 0.25 and 0.17.
With `O=C1CCSSCCNC(=O)C(CNC(=O)c2ccc(Cl)cc2)NC(=O)C2CCCN(C2)C(=O)C(Cc2ccccc2)N1` (centres unmarked) [X F B4 D3 Acid 25], the “fraction fluorescent probe displaced, Screen” value (Acid 25) worked out at 0.12. Moreover, the “fraction fluorescent probe displaced, Replicate” value (Acid 25, replicate) turned out to be 0.22.
Regarding `Cc1nnsc1C(=O)NC[C@@H]1NC(=O)[C@@H]2CCCN2C(=O)CCSSCCNC(=O)[C@H](Cc2ccccc2)NC1=O` [X-B1-D3-F + A15] ([Mpa]P[Dap](1,2,3Thiadiazole5CO(4-Me))F-Cysteamide; disulfide 1-C), the “fraction fluorescent probe displaced” value under setting [1] is listed as -0.03374.
The same measure, in the same setting: for `O=C(NC[C@@H]1NC(=O)[C@@H]2CCCN2C(=O)CCSSCCNC(=O)[C@H](Cc2c[nH]c3ccccc23)NC1=O)c1ccccc1` [X-B1-D3-W + A1] ([Mpa]P[Dap](Bz)W-Cysteamide; disulfide 1-C) the value was -0.005048.
Consider `O=C1CCSSCCNC(=O)C2(CCN(C(=O)c3ccc(Cl)s3)CC2)NC(=O)[C@H]2CCCN(C2)C(=O)[C@H](Cc2c[nH]c3ccccc23)N1` [X W B4 D6 Acid 14], for which, for the setting “Acid 14”, the “fraction fluorescent probe displaced, Screen” value is recorded as 0.17. The “fraction fluorescent probe displaced, Replicate” value (Acid 14, replicate) was 0.33.
For the molecule `O=C1CCSSCCNC(=O)C2(CCN(C(=O)/C=C/c3ccccc3)CC2)NC(=O)[C@@H]2CCCN2C(=O)[C@H](Cc2ccccc2)N1` [X F B1 D6 Acid 91] ([Mpa]FP[Api](X1)-Cysteamide; disulfide 1-C), for the setting “Acid 91”, the “fraction fluorescent probe displaced, Screen” value is listed as -0.05. The “fraction fluorescent probe displaced, Replicate” value (Acid 91, replicate) turned out to be 0.0168.
For the molecule `O=C(NC[C@@H]1NC(=O)[C@@H]2CCCN2C(=O)CCSSCCNC(=O)[C@H](Cc2c[nH]c3ccccc23)NC1=O)c1cccc(C(F)(F)F)c1` [X-B1-D3-W + A18] ([Mpa]P[Dap](Benzoyl(3-CF3))W-Cysteamide; disulfide 1-C), the “fraction fluorescent probe displaced” value under setting [1] is reported as -0.006211.
Regarding `O=C1CCSSCCNC(=O)[C@@H]2CCCN2C(=O)[C@H](CNC(=O)c2ccc(Cl)cc2)NC(=O)[C@H](Cc2ccccc2)N1` [X F D3 B1 Acid 25] ([Mpa]F[Dap](Benzoyl(4-Cl))P-Cysteamide; disulfide 1-C), for the setting “Acid 25”, the “fraction fluorescent probe displaced, Screen” value came out at 0.0569. Also, the “fraction fluorescent probe displaced, Replicate” value (Acid 25, replicate) turned out to be 0.15.
On to `O=C(/C=C/c1ccccc1)NC[C@@H]1NC(=O)c2cccc(c2)CNC(=O)[C@H](Cc2c[nH]c3ccccc23)NC(=O)CCSSCCNC1=O` [X W B5 D3 Acid 91], for which, where the note is “Acid 91”, the “fraction fluorescent probe displaced, Screen” value amounted to 0.03. The “fraction fluorescent probe displaced, Replicate” value (Acid 91, replicate) came out at 0.07.
For `CC(C)CC(=O)NC[C@@H]1NC(=O)[C@@H]2CCCN2C(=O)CCSSCCNC(=O)[C@H](Cc2c[nH]c3ccccc23)NC1=O` [X-B1-D3-W + A8] ([Mpa]P[Dap](Isovaleryl)W-Cysteamide; disulfide 1-C), the “fraction fluorescent probe displaced” value under setting [1] was 0.1324.
Turning to `O=C1CCSSCCNC(=O)C2CN(C(=O)c3ccc(Cl)cc3)CCN2C(=O)C(Cc2c[nH]c3ccccc23)NC(=O)CCN1` (centres unmarked) [X B2 W D7 Acid 25], the “fraction fluorescent probe displaced, Screen” value (Acid 25) worked out at 0.0569. Also, the “fraction fluorescent probe displaced, Replicate” value (Acid 25, replicate) is 0.10.
The corresponding values for `O=C1CCSSCCNC(=O)[C@H](CNC(=O)c2ccc(Cl)cc2)NC(=O)[C@H](Cc2ccccc2)NC(=O)CCN1` [X B2 F D3 Acid 25] are 0.0569 and -0.03.
Consider `O=C1NC2(CCN(C(=O)c3ccc(Cl)cc3)CC2)C(=O)N[C@@H](Cc2ccccc2)C(=O)NCCSSCCC(=O)N2CCC[C@H]1C2` [X B4 D6 F + Acid 25], for which the “fraction fluorescent probe displaced” value came out at 0.0462 (crude reaction of macrocycle scaffold with Acid 25, (initial screen)) and 0.10 (crude reaction of macrocycle scaffold with Acid 25, replicate).
Turning to `O=C(/C=C/c1ccccc1)NC[C@@H]1NC(=O)CCNC(=O)[C@H](Cc2ccccc2)NC(=O)CCSSCCNC1=O` [X F B2 D3 Acid 91], for the setting “Acid 91”, the “fraction fluorescent probe displaced, Screen” value amounted to 0.03. Further, the “fraction fluorescent probe displaced, Replicate” value (Acid 91, replicate) came out at 0.04.
In the case of `CC(C)=CCCC(C)CC(=O)NC[C@@H]1NC(=O)[C@@H]2CCCN2C(=O)CCSSCCNC(=O)[C@H](Cc2ccccc2)NC1=O` (some centres unmarked) [X-B1-D3-F + A84] ([Mpa]P[Dap](X7)F-Cysteamide; disulfide 1-C), under setting [1], the “fraction fluorescent probe displaced” value was 0.05085.
Turning to `Cc1cc(C(=O)NC[C@@H]2NC(=O)[C@@H]3CCCN3C(=O)CCSSCCNC(=O)[C@H](Cc3c[nH]c4ccccc34)NC2=O)no1` [X-B1-D3-W + A3] ([Mpa]P[Dap](Isoxazole3carbonyl(5-Me))W-Cysteamide; disulfide 1-C), the “fraction fluorescent probe displaced” value under setting [1] was 0.08125.
Regarding `O=C1CCSSCCNC(=O)C(Cc2ccccc2)NC(=O)C2(CCN(C(=O)c3ccc(Cl)s3)CC2)NC(=O)c2cccc(c2)CN1` (centres unmarked) [X B5 D6 F Acid 14], the “fraction fluorescent probe displaced, Screen” value (Acid 14) is on record as -0.0116. Besides, under “Acid 14, replicate”, the “fraction fluorescent probe displaced, Replicate” value is 0.05.
As to `O=C(/C=C/c1ccccc1)NC[C@@H]1NC(=O)[C@@H]2CCCN2C(=O)CCSSCCNC(=O)[C@H](Cc2c[nH]c3ccccc23)NC1=O` [X B1 D3 W Acid 91] ([Mpa]P[Dap](X1)W-Cysteamide; disulfide 1-C), under “Acid 91”, the “fraction fluorescent probe displaced, Screen” value is given as 0.11. Under “Acid 91, replicate”, the “fraction fluorescent probe displaced, Replicate” value was 0.07.
Turning to `O=C1CCSSCCNC(=O)[C@@H]2C[C@H](NC(=O)c3ccc(Cl)cc3)CN2C(=O)[C@H](Cc2ccccc2)NC(=O)c2cccc(c2)CN1` [X B5 F D5 Acid 25], where the note is “Acid 25”, the “fraction fluorescent probe displaced, Screen” value was 0.0244. Also, under “Acid 25, replicate”, the “fraction fluorescent probe displaced, Replicate” value is reported as 0.10.
The corresponding values for `O=C1CCSSCCNC(=O)C2CN(C(=O)c3ccc(Cl)cc3)CCN2C(=O)c2cccc(c2)CNC(=O)C(Cc2c[nH]c3ccccc23)N1` (centres unmarked) [X W B5 D7 Acid 25] are 0.0244 and 0.12.
Turning to `O=C1CCSSCCNC(=O)c2cccc(c2)CNC(=O)C2CC(NC(=O)c3ccc(Cl)s3)CN2C(=O)C(Cc2ccccc2)N1` (centres unmarked) [X F D5 B5 Acid 14], the “fraction fluorescent probe displaced, Screen” value (Acid 14) was -0.00483. For the same molecule, the “fraction fluorescent probe displaced, Replicate” value (Acid 14, replicate) was -0.00432.
The corresponding values for `O=C1CCSSCCNC(=O)C2CCCN(C2)C(=O)C2CC(NC(=O)c3ccc(Cl)s3)CN2C(=O)C(Cc2ccccc2)N1` (centres unmarked) [X F D5 B4 Acid 14] are -0.00483 and 0.0211.
